Like-named read-outs stand apart in the source and are kept apart here.
Key:
VHL-NanoLuc = target: T1, VHL-NanoLuc (Homo sapiens, UniProt P40337); test: NanoBRET VHL target engagement assay in HEK293 cells; format: binding
T1 construct: host or cells: HEK293
Procedure: Figure 9 Binding affinities to VHL and LRRK2. (A) Binding affinity of the tested compounds to VHL using the FP assay. […] NanoBRET target engagement assays of tested compounds to VHL (B) and LRRK2 (C) in permeabilized and live-cell modes. The indicated compounds were titrated into HEK293 cells transfected with VHL-NanoLuc (B) or LRRK2-NanoLuc fusion (C) in the presence of VHL tracer (B) or LRRK2 tracer (C). 0.25 and 0.5 μM VHL tracers were used for the permeabilized and live mode VHL engagement assays separately. 0.125 and 0.5 μM of LRRK2 tracer were used for the permeabilized and live mode LRRK2 engagement assays separately. […]
For VHL and LRRK2 target engagement experiments in live and permeabilized cells, the HEK293 cells were transfected with the VHL-NanoLuc fusion vector (Promega, N275A) or LRRK2-NanoLuc fusion vector (Promega, NV3401) following Promega’s protocol and seeded into a white 384-well plate (Corning3570) at a density of 6000 cells/well. […] The filtered luminescence was measured within 10 min following the addition of the substrate on a GloMax Discover microplate reader (Promega) or a PHERAstar (BMG LABTECH) plate reader equipped with a 450 nm bandpass filter (donor) and a 600 nm long-pass filter (acceptor). […]

pRab10 = test: cells; format: cell-based, human; settings: for EC50: Homo sapiens, PBMC, PBMCs, read-out: EC50s (pRab10)
From the text: The relative LRRK2 protein and pRab10 levels were obtained by quantifying the ratios of total LRRK2/GAPDH or Rab10-pThr73/total Rab10, respectively, and the ratios were normalized to the DMSO-treated samples. The relative LRRK2 and pRab10 protein levels were plotted against the compound concentration and fitted against “nonlinear regression, one site-fit log IC50” in GraphPad to obtain the DC50 and EC50 values. Data points are presented as mean ± standard error of the mean (SEM) from three biological independent replicates. […] The relative LRRK2 protein and pRab10 levels were obtained by quantifying the ratios of total LRRK2/ GAPDH or Rab10-pThr73/total Rab10, respectively, and the ratios were normalized to the DMSO-treated samples. The relative LRRK2 and pRab10 protein levels were plotted against the treatment time and were fitted against “nonlinear regression, one-phase decay” in GraphPad to obtain the half-life (T1/2) values. Data points are presented as mean ± SEM from three biological independent replicates. […] The relative LRRK2 levels were obtained by quantifying the ratios of total LRRK2/tubulin and normalized to the DMSO-treated samples. The relative LRRK2 levels were plotted against the compound concentration and fitted against “nonlinear regression, one site-fit log IC50” in GraphPad to obtain the DC50 values.
PBMC cells were separated from human blood from healthy volunteer donors following the existing protocol[82] and pelleted by centrifugation at 1000g for 2 min. The supernatant was discarded, and the PBMC pellet was resuspended in PBS containing 2% FBS for washing. The suspension was centrifuged at 1000g for 2 min again, and the PBMC pellet was resuspended in Roswell Park Memorial Institute (RPMI)-1640 (Gibco) media supplemented with 10% FBS. The cells were then seeded into six-well plates and treated with testing compounds at indicated concentrations and time periods. After treatment, the cells were collected into a 2 mL Eppendorf tube and centrifuged at 500g for 2 min to pellet the cells, the supernatant was discarded, and the pellet was resuspended in 1 mL PBS and centrifuged at 500g for 2 min again. The PBMC pellet was lysed with 60 μL of lysis buffer containing 50 mM tris–HCl, pH 7.5, 1% (v/v) Triton X-100, 1 mM ethylene glycol-bis(β-aminoethyl ether)-N,N,N′,N′-tetraacetic acid (EGTA), 1 mM sodium orthovanadate, 50 mM NaF, 0.1% (v/v) 2-mercaptoethanol, 10 mM 2-glycerophosphate, 5 mM sodium pyrophosphate, 0.1 μg/mL microcystin-LR (Enzo Life Sciences), 270 mM sucrose, and 0.5 mM diisopropyl fluorophosphate (DIFP) (Sigma-Aldrich, Cat# D0879) in addition to a complete EDTA-free protease inhibitor cocktail (Sigma-Aldrich Cat # 11836170001). DIFP is highly toxic and must be prepared in a fume hood to a stock solution of 0.5 M in isopropanol. The lysed cells were then centrifuged at 1500g for 15 min at 0 °C. The supernatants were collected for analysis by quantitative immunoblotting. For long-term storage, the supernatant was flash-frozen and stored at −80 °C. Protein concentrations of cell lysates were determined using the Pierce BCA Protein Assay Kit (Thermo Fisher).
Cell lysates containing a quarter of a volume of 4× NuPAGE LDS sample buffer (NP0007) supplemented with 5% β-mercaptoethanol were heated at 95 °C for 5 min. […]

T1 sequence (P40337 whole entry): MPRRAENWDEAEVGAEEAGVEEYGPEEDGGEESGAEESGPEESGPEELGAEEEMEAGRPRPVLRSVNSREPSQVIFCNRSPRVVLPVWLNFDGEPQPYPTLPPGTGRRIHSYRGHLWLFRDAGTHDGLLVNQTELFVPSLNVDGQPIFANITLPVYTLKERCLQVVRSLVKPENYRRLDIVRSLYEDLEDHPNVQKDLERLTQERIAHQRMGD

Compound	VHL IC50 Permeabilized/IC50 Live (VHL-NanoLuc; ratio used to compare permeabilities)	EC50 (pRab10; 4 h) [nM]	EC50 (pRab10; 24 h) [nM]	pRab10 T1/2 (pRab10; human, pbmc, 300 nM) [h]	IC50 (VHL-NanoLuc; permeabilized HEK293 cells) [nM]
CNc1nc(Nc2ccc(C(=O)N3CCN(CCOCCOCCSC(C)(C)[C@H](NC(=O)C4(F)CC4)C(=O)N4C[C@H](O)C[C@H]4C(=O)NCc4ccc(-c5scnc5C)cc4)CC3)cc2OC)ncc1Cl [SD75]	0.76	–	–	–	–
CNc1nc(Nc2ccc(C(=O)N3CCN(C[C@H]4CC[C@H](CSC(C)(C)[C@H](NC(=O)C5(F)CC5)C(=O)N5C[C@H](O)CC5C(=O)NCc5ccc(-c6scnc6C)cc5)CC4)CC3)cc2OC)ncc1Cl (stereo partly drawn) [XL01126, (2S,4R)-1-((R)-3-((((1R,4R)-4-((4-(4-((5-Chloro-4-(methylamino)pyrimidin-2-yl)amino)-3-methoxybenzoyl)piperazin-1-yl)methyl)cyclohexyl)methyl)thio)-2-(1-fluorocyclopropane-1-carboxamido)-3-methylbutanoyl)-4-hydroxy-N-(4-(4-methylthiazol-5-yl)benzyl)pyrrolidine-2-carboxamide]	–	69	20	0.38	> 10000
CNc1nc(Nc2ccc(C(=O)N3CCN(C[C@H]4CC[C@H](CSC(C)(C)[C@H](NC(=O)C5(F)CC5)C(=O)N5C[C@@H](O)C[C@H]5C(=O)NCc5ccc(-c6scnc6C)cc5)CC4)CC3)cc2OC)ncc1Cl [cis-XL01126, (2S,4S)-1-((R)-3-((((1R,4R)-4-((4-(4-((5-Chloro-4-(methylamino)pyrimidin-2-yl)amino)-3-methoxybenzoyl)piperazin-1-yl)methyl)cyclohexyl)methyl)thio)-2-(1-fluorocyclopropane-1-carboxamido)-3-methylbutanoyl)-4-hydroxy-N-(4-(4-methylthiazol-5-yl)benzyl)pyrrolidine-2-carboxamide]	–	~3000	705	–	–

From publication PMC9501899 (Journal of the American Chemical Society, 2022)
